Test results reported in the NIST ThermoML archive (doi:10.1021/je400056z).

Experiment: xn = mol fraction of the nth substance listed
Details: Liquid, Vibrating tube method

CCCCCCCCCCCCC [tridecane] + O=C=O
Details | mass density [kg/m3]
353.12 K, 20000 kPa, x2 = 0.0955 | 732.3
353.12 K, 20000 kPa, x2 = 0.2526 | 735.2
353.12 K, 21000 kPa, x2 = 0.0955 | 733.1
353.12 K, 21000 kPa, x2 = 0.2526 | 736
353.12 K, 22000 kPa, x2 = 0.0955 | 733.9
353.12 K, 22000 kPa, x2 = 0.2526 | 736.8
353.12 K, 23000 kPa, x2 = 0.0955 | 734.6
353.12 K, 23000 kPa, x2 = 0.2526 | 737.6
353.12 K, 24000 kPa, x2 = 0.0955 | 735.4
353.12 K, 24000 kPa, x2 = 0.2526 | 738.5
353.12 K, 25000 kPa, x2 = 0.0955 | 736.1
353.12 K, 25000 kPa, x2 = 0.2526 | 739.2
353.13 K, 17000 kPa, x2 = 0.8978 | 677.4
353.13 K, 18000 kPa, x2 = 0.8978 | 689.5
353.13 K, 20000 kPa, x2 = 0.8978 | 712.3
353.13 K, 21000 kPa, x2 = 0.8978 | 721.9
353.13 K, 22000 kPa, x2 = 0.8978 | 730.6
353.13 K, 23000 kPa, x2 = 0.8978 | 738.3
353.13 K, 24000 kPa, x2 = 0.8978 | 745.5
353.13 K, 25000 kPa, x2 = 0.8978 | 752.2
353.15 K, 8000 kPa, x2 = 0.5259 | 729.7
353.15 K, 9000 kPa, x2 = 0.5259 | 731.2
353.15 K, 10000 kPa, x2 = 0.5259 | 732.7
353.15 K, 11000 kPa, x2 = 0.5259 | 734.2
353.15 K, 12000 kPa, x2 = 0.5259 | 735.6
353.15 K, 13000 kPa, x2 = 0.5259 | 737
353.15 K, 14000 kPa, x2 = 0.5259 | 738.3
353.15 K, 15000 kPa, x2 = 0.5259 | 739.7
353.15 K, 16000 kPa, x2 = 0.5259 | 741
353.15 K, 17000 kPa, x2 = 0.5259 | 742.3
353.15 K, 18000 kPa, x2 = 0.5259 | 743.6
353.15 K, 19000 kPa, x2 = 0.5259 | 744.9
353.15 K, 20000 kPa, x2 = 0.5259 | 746
353.15 K, 21000 kPa, x2 = 0.5259 | 747.3
353.15 K, 22000 kPa, x2 = 0.5259 | 748.4
353.15 K, 23000 kPa, x2 = 0.5259 | 749.6
353.15 K, 24000 kPa, x2 = 0.5259 | 750.6
353.15 K, 25000 kPa, x2 = 0.5259 | 751.8
353.35 K, 16000 kPa, x2 = 0.7549 | 739.7
353.35 K, 17000 kPa, x2 = 0.7549 | 742.7
353.35 K, 18000 kPa, x2 = 0.7549 | 745.7
353.35 K, 19000 kPa, x2 = 0.7549 | 748.7
353.35 K, 20000 kPa, x2 = 0.7549 | 751.8
353.35 K, 21000 kPa, x2 = 0.7549 | 754.9
353.35 K, 22000 kPa, x2 = 0.7549 | 757.9
353.35 K, 23000 kPa, x2 = 0.7549 | 760.8
353.35 K, 24000 kPa, x2 = 0.7549 | 763.8
353.35 K, 25000 kPa, x2 = 0.7549 | 766.7
363.07 K, 19000 kPa, x2 = 0.8978 | 671.9
363.07 K, 20000 kPa, x2 = 0.8978 | 681
363.07 K, 21000 kPa, x2 = 0.8978 | 691.1
363.07 K, 22000 kPa, x2 = 0.8978 | 700.8
363.07 K, 23000 kPa, x2 = 0.8978 | 709.5
363.07 K, 24000 kPa, x2 = 0.8978 | 717.3
363.07 K, 25000 kPa, x2 = 0.8978 | 724.8
363.11 K, 9000 kPa, x2 = 0.0955 | 715.7
363.11 K, 9000 kPa, x2 = 0.2526 | 717.4
363.11 K, 10000 kPa, x2 = 0.0955 | 716.7
363.11 K, 10000 kPa, x2 = 0.2526 | 718.4
363.11 K, 10000 kPa, x2 = 0.5259 | 723
363.11 K, 11000 kPa, x2 = 0.0955 | 717.7
363.11 K, 11000 kPa, x2 = 0.2526 | 719.5
363.11 K, 11000 kPa, x2 = 0.5259 | 724.6
363.11 K, 12000 kPa, x2 = 0.0955 | 718.7
363.11 K, 12000 kPa, x2 = 0.2526 | 720.5
363.11 K, 12000 kPa, x2 = 0.5259 | 726.2
363.11 K, 13000 kPa, x2 = 0.0955 | 719.6
363.11 K, 13000 kPa, x2 = 0.2526 | 721.5
363.11 K, 13000 kPa, x2 = 0.5259 | 727.6
363.11 K, 14000 kPa, x2 = 0.0955 | 720.5
363.11 K, 14000 kPa, x2 = 0.2526 | 722.6
363.11 K, 14000 kPa, x2 = 0.5259 | 729.2
363.11 K, 15000 kPa, x2 = 0.0955 | 721.5
363.11 K, 15000 kPa, x2 = 0.2526 | 723.6
363.11 K, 15000 kPa, x2 = 0.5259 | 730.6
363.11 K, 16000 kPa, x2 = 0.0955 | 722.4
363.11 K, 16000 kPa, x2 = 0.2526 | 724.6
363.11 K, 16000 kPa, x2 = 0.5259 | 732
363.11 K, 17000 kPa, x2 = 0.0955 | 723.3
363.11 K, 17000 kPa, x2 = 0.2526 | 725.5
363.11 K, 17000 kPa, x2 = 0.5259 | 733.4
363.11 K, 18000 kPa, x2 = 0.0955 | 724.1
363.11 K, 18000 kPa, x2 = 0.2526 | 726.4
363.11 K, 18000 kPa, x2 = 0.5259 | 734.7
363.11 K, 19000 kPa, x2 = 0.0955 | 725
363.11 K, 19000 kPa, x2 = 0.2526 | 727.4
363.11 K, 19000 kPa, x2 = 0.5259 | 736
363.11 K, 20000 kPa, x2 = 0.0955 | 725.8
363.11 K, 20000 kPa, x2 = 0.2526 | 728.3
363.11 K, 20000 kPa, x2 = 0.5259 | 737.3
363.11 K, 21000 kPa, x2 = 0.0955 | 726.6
363.11 K, 21000 kPa, x2 = 0.2526 | 729.2
363.11 K, 21000 kPa, x2 = 0.5259 | 738.6
363.11 K, 22000 kPa, x2 = 0.0955 | 727.5
363.11 K, 22000 kPa, x2 = 0.2526 | 730.1
363.11 K, 22000 kPa, x2 = 0.5259 | 739.9
363.11 K, 23000 kPa, x2 = 0.0955 | 728.3
363.11 K, 23000 kPa, x2 = 0.2526 | 731
363.11 K, 23000 kPa, x2 = 0.5259 | 741.1
363.11 K, 24000 kPa, x2 = 0.0955 | 729.1
363.11 K, 24000 kPa, x2 = 0.2526 | 731.8
363.11 K, 24000 kPa, x2 = 0.5259 | 742.3
363.11 K, 25000 kPa, x2 = 0.0955 | 729.9
363.11 K, 25000 kPa, x2 = 0.2526 | 732.7
363.11 K, 25000 kPa, x2 = 0.5259 | 743.4
363.34 K, 16000 kPa, x2 = 0.7549 | 720.1
363.34 K, 17000 kPa, x2 = 0.7549 | 724.7
363.34 K, 18000 kPa, x2 = 0.7549 | 728.3
363.34 K, 19000 kPa, x2 = 0.7549 | 730.8
363.34 K, 20000 kPa, x2 = 0.7549 | 734.2
363.34 K, 21000 kPa, x2 = 0.7549 | 737.3
363.34 K, 22000 kPa, x2 = 0.7549 | 740.5
363.34 K, 23000 kPa, x2 = 0.7549 | 743.8
363.34 K, 24000 kPa, x2 = 0.7549 | 746.9
363.34 K, 25000 kPa, x2 = 0.7549 | 750.1
